Here are results for 4 molecules from PMC10291556 (Journal of Medicinal Chemistry, 2023).

For data set [1], the system named is HeLa cells. The experiment in a line: HMGB1 release (ELISA). Format: cell-based, human. The conditions noted are these: 1×, 2×, 3× IC50, 20 h. (In general: An ELISA detects its analyte on a solid surface through an enzyme-linked reagent.)
Procedure: (B) Extracellular level of HMGB1. […] The data in panels A, B, and C are shown as a mean of 4–5 measurements ± SD. Statistical significance from untreated control was determined with the Student t-test (*p ≤ 0.05, **p ≤ 0.01, and ^#p ≤ 0.001).
HeLa cells were seeded in 24-well plates at a density of 10^4 cells/well and grown overnight. The medium was removed, and a fresh medium (DMEM, 1% BSA, no FBS) containing indicated concentrations of tested complexes was added (300 μL). Following a 20 h treatment, medium samples were withdrawn, and the HMGB1 content was determined using an HMGB1 ELISA Kit (IBL international) following the instructions for use. Cell counts in corresponding wells were determined using Automated Cell Counter (Bio-Rad). HMGB1 concentrations were normalized to cell counts and to the value of untreated control. The experiment was performed twice with duplicate readings.
For data set [2], the system named is HeLa cells. The experiment in a line: ATP secretion. Format: cell-based, human. The settings on record: 1× and 3× IC50, 24 h.
Procedure: HeLa cells were seeded in 24-well plates at a density of 10^4 cells/well, grown overnight, and then treated with the tested complexes for 24 h. Aliquots of culture medium samples were withdrawn, centrifugated (500g, 3 min), and processed with ATP Bioluminescence Assay Kit CLS II, Roche. Briefly, 50 μL of cell-free medium samples were added to a 96-well flat white plate, and an equal volume of luciferase reagent was added. The luminescence was measured immediately on a plate reader (SPARK, Tecan). The blank (no ATP) was subtracted from the raw data. ATP concentrations were obtained from the standard curve and normalized to cell counts and control. The data are shown as MEAN of 4–5 independent measurements.
Data set [3] is described as follows: MTT assay in non-cancerous fibroblasts, 72 h. The data set is classed as cell-based. The conditions noted are these: MRC-5 cells (non-cancerous fibroblasts), non-cancerous human fibroblasts, 72 h incubation, mean ± SD. The protocol: (§1) Cells were treated with the tested compounds in a final volume of 200 μL/well. […] Calbiochem, Darmstadt, Germany) was added, and the cells were incubated for an additional 2–4 h. The medium was removed, and the insoluble formazan product was dissolved in 100 μL/well DMSO. […] The read values were converted to the percentage of control. […] All experiments were made in triplicate.

The subject of data set [4] is HeLa cells. The experiment in a line: Mitochondrial membrane potential (TMRE, flow cytometry). The data set is classed as cell-based, human. The conditions noted are these: 10× IC50, 1 h, vs untreated control. The protocol: Figure 4 Changes in the mitochondrial membrane potential Δψm in HeLa cells. The cells were treated with Pt compounds at the concentrations corresponding to 10× IC50 for 1 h and subsequently stained with TMRE. The fluorescence was measured by flow cytometry. Data represents mean ± SD from three independent experiments, *p < 0.01.
HeLa cells were seeded (6-well plates, 3 × 10^5 cells/well), grown overnight, and then treated with the tested compounds for 1 h. The medium was removed, and a fresh medium containing TMRE (Thermo Fisher Scientific) at a final concentration of […] in 500 μL was added. The cells were incubated for 30 min at 37 °C and then harvested using trypsin. TMRE fluorescence was measured with a fluorescence-activated cell sorting (FACS) Verse flow cytometer (Becton Dickinson), and the data were analyzed using the ModFit LT 4.1 (Verity Software House) software. The experiment was performed in triplicate.
For orientation: A flow cytometer gives signals particle by particle.

Data set [5] deals with HeLa cells. Briefly: Calreticulin exposure (flow cytometry). The data set is classed as cell-based, human. The settings on record: 3× IC50, 16–18 h, DAPI-negative cells.
Procedure: Following the treatment, the cells were harvested (trypsin), washed with FACS buffer (PBS, BSA 1%, and FBS 2%), and incubated with Alexa Fluor 488 Anti-Calreticulin antibody for 40 min at 4 °C. The buffer was removed (CFG, 300 g, 3 min) and replaced with FACS buffer containing DAPI (1 μg mL^–1, 20 min), and the cells were analyzed with flow cytometry (BD FACS Verse) and FCS Express 6 (DeNovo Software, Glendale, CA). Calreticulin fluorescence histograms were analyzed in the DAPI-negative (intact membrane) cell population.
Data set [6] concerns MDA-MB-231. The experiment in a line: MTT antiproliferative assay, 72 h. The data set is classed as cell-based, human. The settings on record: read-out: IC50 MDA-MB-231. The protocol:
(§2) Cells were treated with the tested compounds in a final volume of 200 μL/well. […] Calbiochem, Darmstadt, Germany) was added, and the cells were incubated for an additional 2–4 h. The medium was removed, and the insoluble formazan product was dissolved in 100 μL/well DMSO. The absorbance was read at 570 nm (vs 620 nm) using an Absorbance Reader (SUNRISE TECAN SCHOELLER). The read values were converted to the percentage of control. […] All experiments were made in triplicate.

Data set [7] relates to HeLa. Briefly: MTT antiproliferative assay, 72 h. The data set is classed as cell-based, human. The method, then: as §2
On the technique in general: Tetrazolium assays rely on reduction of a dye to a coloured formazan, in cell work by metabolically active cells.

For data set [8], the system named is MCF-7. Briefly: MTT antiproliferative assay, 72 h. The data set is classed as cell-based, human. The settings on record: read-out: IC50 MCF-7. The method, then: as §2
The subject of data set [9] is A2780. The experiment in a line: MTT antiproliferative assay, 72 h. The data set is classed as cell-based, human. The conditions noted are these: read-out: IC50 A2780. The method, then: as §2
Data set [10] has as its system A2780cisR. The experiment in a line: MTT antiproliferative assay, 72 h. The data set is classed as cell-based, human. The settings on record: read-out: IC50 A2780cisR. The protocol: as §2
The test system of data set [11] is HCT-116. Briefly: MTT antiproliferative assay, 72 h. The data set is classed as cell-based, human. The conditions noted are these: read-out: IC50 HCT-116. The method, then: as §2
In data set [12] the test system is COX in HeLa cells. The experiment in a line: COX activity assay (kit) in treated cells. The data set is classed as cell-based, human. The settings on record: 24 h, 1× IC50,72h, vs untreated control. The method, then: The results are expressed relative to the COX activity of untreated control.
HeLa cells were seeded in 6-well plates at a density of 10^5 cells/well and incubated overnight. The cells were treated with the tested compounds at concentrations corresponding to 1× IC50. Following a 24 h treatment, the cells were lyzed with radioimmunoprecipitation assay (RIPA) buffer supplemented with proteinase inhibitors on ice for 10 min. The extracts were cleared with centrifugation (12,000g/5 min), and protein content was determined using Bradford assay. COX activity was determined with a COX Activity Assay Kit (Abcam). 6 μg of protein was used in the reaction. The experiment was set up according to the manufacturer’s instructions. The fluorescence (Ex/Em 535/587 nm) was read in a kinetic mode, and the COX inhibition was expressed as a percentage of the activity of the untreated control.

Data set [13] has as its system HeLa cells / Thp-1/PMA macrophages. The experiment in a line: Phagocytosis of treated HeLa cells by Thp-1/PMA macrophages. Format: cell-based, human. The conditions noted are these: HeLa treated 24 h at 1× or 3× IC50,72h, co-incubated 2.5 h with Thp-1/PMA macrophages. The protocol:
Figure 8 Hallmarks of ICD. (A) Extracellular ATP levels in HeLa cell supernatants. […] (B) Extracellular level of HMGB1. […] (C) Calreticulin exposure to the cell surface. […] The surface calreticulin exposure was determined in 4′,6-diamidino-2-phenylindole dihydrochloride (DAPI)-negative cell population. Relative fluorescence intensity was calculated as the median fluorescence of the population of treated cells/median fluorescence of untreated control cells. The data in panels A, B, and C are shown as a mean of 4–5 measurements ± SD. Statistical significance from untreated control was determined with the Student t-test (*p ≤ 0.05, **p ≤ 0.01, and ^#p ≤ 0.001). (D) Quantitative evaluation of phagocytosis of HeLa cells treated with the investigated compounds by human Thp-1/PMA macrophages (analyzed by flow cytometry). […] Error bars are the SEMs calculated from three independent experiments. The stars denote a significant difference from untreated control (*p ≤ 0.05, **p ≤ 0.01) as calculated by the […] Student t-test. […]
Human monocytic leukemia cells Thp-1 (obtained from American Type Culture Collection, ATCC) were differentiated into macrophages with phorbol 12-myristate 13-acetate (PMA, 100 nM) for 24 h. […] Phagocytosis was evaluated using flow cytometry (BD FACSVerse), and data were analyzed with FCS Express 7 (DeNovo software; Glendale, CA). […]

A short description of data set [14]: Partition coefficient, shake-flask method. The settings on record: octanol/water. Format: physicochemical. The protocol: The “shake flask” method was used to measure the partition coefficients (P) of platinum compounds. The compounds were dissolved in octanol-saturated water (OSW) containing 200 mM NaCl. […] After careful separation of the layers with a fine-tip pipet, the Pt content in individual phases was determined by flameless atomic absorption spectrometry. The partition coefficients were calculated as the concentration ratio of the compound in the octanol layer to that in the aqueous layer, log P = log([Pt]WSO/[Pt]OSW).

For data set [15], the system named is MRC-5. Briefly: MTT assay in non-cancerous fibroblasts, 72 h. The settings on record: non-cancerous human fibroblasts, 72 h incubation, mean ± SD. Format: cell-based. The method, then:
as §1

Data set [16] deals with HeLa cells. Briefly: Cellular accumulation of platinum (ICP-MS). Format: cell-based, human. The protocol:
Briefly, 3 × 10^6 cells were seeded in 100 mm culture dishes and grown overnight. The cells were exposed to the tested complexes at indicated concentrations for indicated periods. […] The pellets were digested using the microwave acid (HCl) digestion system (CEM Mars). The platinum quantity taken up by the cells was determined by inductively coupled plasma mass spectrometry (ICP–MS). All experiments were performed in triplicate.

For data set [17], the system named is oral cancer xenograft. Also noted: method as in PMID 33305724. The conditions noted are these: BALB/c nude mice; cited from earlier work.
The test system of data set [18] is DNA isolated from HeLa cells. Briefly: Pt associated with DNA isolated from treated HeLa cells. Format: cell-based, human. The settings on record: 1 µM compound, 6 h, mean ± SD. The text has this: page 16: Table S1: […] concentration of tested compounds for 6 ha. […] Figure S19: A. Representative histograms obtained by flow cytometric analysis of calreticulin exposure in HeLa cells treated with indicated compounds. B. An example of gating DAPI negative population. Only DAPI-negative cells were taken for the evaluation.

In data set [19] the test system is peritoneal carcinomatosis. Also on record: method as in PMID 20535526. The conditions noted are these: BD-IX rats; cited from earlier work.
The test system of data set [20] is tumor cells. The settings on record: cited from earlier work.
[21] abbreviates: MTT, 72 h incubation, mean ± SD.

Where two headings read alike, the source gives them in different places.

As to `O=C([O-])Cc1ccccc1Nc1c(Cl)cccc1Cl.[Na+]` [DCF, sodium {2-[(2,6-dichlorophenyl)amino]phenyl}-acetate, reference compound], in data set [1], the HMGB1 secretion entry is on record as “effective as well”. Further, in data set [2], the ATP secretion result is listed as “effective as well”. Besides, the IC50 at 72 h in data set [3] came to 445 ± 36 µM. The “mitochondrial membrane potential Δψm (TMRE fluorescence)” value in data set [4] was “approximately the same effect”. Also, the externalization of calreticulin entry in [5] is recorded as “effective as well”. Further, the IC50 in data set [6] (Homo sapiens, MDA-MB-231, 72 h) worked out at 187 ± 15 µM; in data set [7] (Homo sapiens, HeLa, 72 h, read-out: IC50 HeLa) it was 250 ± 22 µM; in data set [7] (Homo sapiens, HeLa, read-out: HeLa (biological data CSV)) it was 240 ± 15 µM; in data set [8] (Homo sapiens, MCF7, 72 h) it was 259 ± 17 µM; in data set [9] (Homo sapiens, A2780, 72 h), 238 ± 19 µM; in data set [10] (Homo sapiens, A2780cisR, 72 h), 138 ± 8 µM. In addition, the IC50 in [11] (Homo sapiens, HCT-116, 72 h) worked out at 211 ± 10 µM. Further, the “inhibition of COX activity” value in data set [12] was “Inhibition of COX activity was also observed”.
For `Cc1c(C)c2cccnc2c2ncccc12.N[C@H]1CCCC[C@@H]1N.[Pt]` [complex 1, [Pt(1S,2S-diaminocyclohexane)(5,6-dimethyl-1,10-phenanthroline)]^2+], the HMGB1 secretion result in data set [1] was “effective as well”. Further, in [13], the “increase of tumor-cell phagocytosis” value is on record as “roughly as effective as its Pt(IV) analogues 2–4”. The ATP secretion result in data set [2] is listed as “effective as well”. The “log P” value in [14] is reported as “–1.7 ± 0.2”. Besides, the IC50 in [15] was determined as 0.17 ± 0.04 µM; in [6] (setting [21]), 0.24 ± 0.03 µM; in data set [7] (MTT, 72 h incubation, mean ± SD, read-out: IC50 HeLa), 0.37 ± 0.01 µM; in data set [8] (setting [21]), 0.7 ± 0.1 µM; in data set [9] (setting [21]) it was 0.19 ± 0.04 µM; in data set [10] (setting [21]), 0.06 ± 0.01 µM. In addition, in [11] (setting [21]), the IC50 was 0.08 ± 0.01 µM. In data set [16] (0.1 μM complex, 24 h), the “cellular uptake 0.1 μM/24 h” value came to 4.4 ± 0.5 ng Pt/10^6 cells. Moreover, the “cellular uptake 1 μM/6 h” value in [16] (1 μM complex, 6 h) is 13 ± 3 ng Pt/10^6 cells. Also, the “cellular uptake 10 μM/6 h” value in [16] (10 μM complex, 6 h) is given as 72 ± 2 ng Pt/10^6 cells. Besides, the “in vivo anticancer effect, oral cancer xenograft” value in [17] is listed as “potent anticancer effect”. In addition, in data set [18], the “amount of Pt associated with DNA” value is 2.0 ± 0.2 pg Pt/µg DNA. The externalization of calreticulin result in [5] is “effective as well”. Further, in [19], the “in vivo antitumor activity, peritoneal carcinomatosis” value is given as “no antitumor activity”.
In the case of `COc1cccc2c1C(=O)c1c(O)c3c(c(O)c1C2=O)C[C@@](O)(C(=O)CO)C[C@@H]3O[C@H]1C[C@H](N)[C@H](O)[C@H](C)O1` [doxorubicin, reference compound], the “increase of tumor-cell phagocytosis” value in data set [13] is “slightly less pronounced levels of phagocytosis”.
On to `O=C1[O][Pt]2([NH][C@@H]3CCCC[C@H]3[NH]2)[O]C1=O` [oxaliplatin], for which, in [20], the tumor cell phagocytosis entry is recorded as “does not promote tumor cell phagocytosis”.
